# Assay results: US4092426A, “Novel aminobenzoic acid derivatives, process for preparing the same and pharmaceutical composition containing the same” (Chugai Seiyaku Kabushiki Kaisha, priority 1975, dated 1978)
# Experiments:
# triglyceride in liver = experiment: Action for decreasing triglyceride in liver (ethanol-induced); type: in vivo, Sprague Dawley strain female rats; details: Rattus norvegicus, po, 24 h, oral 100 mg/kg, 30 min before ethanol 6 g/kg, read-out: % Prevention (of increase in triglyceride content in the liver)
# Method: Sprague Dawley strain female rats each weighing 170 - 200 g which had been fasted for 15 hours were divided into groups of 4 rats each. The rats were orally administered a different test compound in a dose of 100 mg/kg, and 30 minutes after the administration, orally administered ethanol in a dose of 6 g/kg. Twenty-four hours after the administration of ethanol, the liver of each rat was taken out and neutral lipid level in the liver was measured in a conventional manner to calculate the ratio of preventing an increase in triglyceride content in the liver. For a control group, ethanol and, for the other control group, a glucose aqueous solution equivalent in calorific value to the same amount of ethanol were used and the same manner as those of test groups, and for the positive control group, commercially available 2-mercaptopropionylglycine was used instead of the test compound.
# *The % prevention was calculated by the following
# [1] = tested on: Pseudomonas aeruginosa Pa-II; experiment: Activity for Protecting from Infection by Bucillus Pyocyaneous, with carbenicillin; type: in vivo; details: mouse, test compound (combination arm) 2 mg/head oral; for Number of Survival Animals/Number of Tested Animals: 54 hours
# Method: As test animals, ddY strain male mice (5 week old) which were divided into groups of 9 members each were used. Each mouse was intraperitoneally administered with 10^6 Pseudomonas aeruginosa Pa-II, and 1.5 hours after the administeration, subcutaneously administered one shot of carbenicillin, an antibiotic. The test compound, disodium salt of N-2'-carboxyphenyl-4-chloroanthranilic acid, was orally administered once a day in a dose of 2 mg/head one and two days before the inoculation, respectively. The activity of the test compound was evaluated by observing the test animals for 54 hours after the inoculation.
# Acute Toxicity = experiment: Acute Toxicity; parameters: species or system Wistar-Imamichi strain male and female rats; details: rat, in vivo, po, suspension in 5% gum arabi
# Method: Acute toxicity of N-2'-carboxyphenyl-4-chloroanthranilic acid was determined using Wistar-Imamichi strain male and female rats (11 week old) as test animals. The test compound was orally administered as a suspension in a 5% gum arabi aqueous solution.
# [2] = tested on: concentration of bilirubin in the blood; experiment: Bilirubin Excretion Activity; type: in vivo, Sprague Dawley strain female rats; details: rat, oral 100 mg/kg; bilirubin i.v.; 20 min after; ** P<0.02
# Method: Sprague Dawley strain female rats each weighing 160 - 200 g which had been fasted for 15 hours were divided into groups of 6 rats each. The rats were orally administered with a different test compound in a dose of 100 mg/kg, and 60 minutes after the administration, each of the rats was injected through the tail vein with […] of bilirubin. Twenty minutes after the injection, the blood of each rat was sampled from the heart and the concentration of bilirubin in the blood was determined in a conventional manner.
# As control, a physiological saline solution was used instead of the test compound.
# [3] = tested on: concentration of ICG in the blood; experiment: Indocyanogree (ICG) Test; type: in vivo, Sprague Dawley strain male rats; details: rat, oral 100 mg/kg; ICG 2 mg/head i.v.; 15 min after; ** P<0.02
# Method: Sprague Dawley strain male rats weighing 180 - 210 g which had been fasted for 15 hours were divided into groups of 4 rats each. The rats were orally administered a different test compound in a dose of 100 mg/kg, and 60 minutes after the administration, each of the rats was injected through the tail vein with 2 mg/head of ICG. Fifteen minutes after the injection, the blood of each rat was sampled from the heart and the concentration of ICG in the blood was determined in a conventional colorimetric manner. As control, a physiological saline solution was used.
# [4] = tested on: concentration of BSP in blood; experiment: Bromosulfophthalein (BSP) Test; type: in vivo, Sprague Dawley strain female rats; details: rat, oral 100 mg/kg; BSP 28 mg/head i.v.; 30 min after; ** P<0.01
# Method: Sprague Dawley strain female rats each weighing 150 - 190 g which had been fasted for 15 hours were divided into groups of 4 rats each. The rats were orally administered a different test compound in a dose of 100 mg/kg, and 60 minutes after the administration, each of the rats was injected through the tail vein with 28 mg/head of BSP. Thirty minutes after the injection, the blood of each rat was sampled from the heart and the concentration of BSP was determined in a conventional colorimetric manner. As control, a physiological saline solution was orally administered instead of the test compound.
# antibody in blood = experiment: Titer of Antibody in Blood after sensitization with SRBC (hemolysing method); type: in vivo, Sprague Dawley strain male rats; details: administered on the day and a day after the sensitization with SRBC
# Method: (§1) Sprague Dawley strain male rats weighing 200 - 220 g which were divided into 7 groups of 5 or 6 rats each were used as test animals.
# (§2) The six groups were orally administered by one shot with the test compound, N-2'-carboxyphenyl-4-chloroanthranilic acid in a dose of 100 mg/kg on six different days, a day before the sensitization, on the date, a day after, two days after, three days after and four days after the sensitization with an antigen (SRBC: Sheep red blood cell). The SRBC was intraveneously injected in the rat through the tail vein in an amount of 1 ml as a 2% aqueous suspension. For control groups, a physiological saline solution was used in the same amount and in the same manner as those of the test groups on the day of sensitization.
# (§3) Five days after the sensitization, the rats were sacrificed and the spleen of each of the rats was taken out and the blood was sampled.
# (§4) The number of plaque forming cells and titers in blood were determined by the Jerne's plaque method and a hemolysing method, respectively.
# plaque forming cells = experiment: Increase in Number of Plaque Forming Cells after sensitization with SRBC (Jerne's plaque method); type: in vivo, Sprague Dawley strain male rats
# Method: as §1, §2, §3, §4
# [5] = tested on: plaque forming cells (PFC) in the spleen; experiment: Activity for Recovering Immune Depletion by cortisone: plaque forming cells (PFC) in the spleen; type: in vivo, IV CS strain male mice; details: cortisone 60 mg/kg i.p. alone
# Method: As test animals, IV CS strain male mice (5 week old) were used by dividing them into groups of 5 members each. Each mouse was intraperitoneally administered with cortisone in a dose of 60 mg/kg once a day for 5 days. Three days after the first administration, the sensitization with an antigen, sheep red blood cell (SRBC), was made by injecting the antigen into the mouse through the tail vein. Each mouse was orally administered with the test compound, disodium salt of N-2'-carboxyphenyl-4-chloroanthranilic acid, a day after the sensitization. Five days after the sensitization, the number of plaque forming cells (PFC) in the spleen was measured in a usual manner.
structure (smiles),measurement,setting,value
"Cc1ccc(C)c(C(=O)O)c1Nc1cc(Cl)ccc1C(=O)O [N-2'-carboxy-3',6'-dimethylphenyl-4-chloroanthranilic acid]",inhibition in vivo at 100 mg/kg,triglyceride in liver,45.8%
Cc1ccc(Nc2ccccc2C(=O)O)c(C(=O)O)c1 [N-2'-carboxyphenyl-5-methylanthranilic acid],inhibition in vivo at 100 mg/kg,triglyceride in liver,20.1%
"CC1(C)S[C@@H]2[C@H](NC(=O)C(C(=O)O)c3ccccc3)C(=O)N2[C@H]1C(=O)O (stereo partly shown) [Carbenicillin, carbenicillin]",Number of Survival Animals/Number of Tested Animals,[1]; Carbenicillin 10 mg/head s.c.,0/9
same,Number of Survival Animals/Number of Tested Animals,[1]; Carbenicillin 20 mg/head s.c.,2/9
same,Number of Survival Animals/Number of Tested Animals,[1]; Carbenicillin 40 mg/head s.c.,9/9
same,ED50 (dose of carbenicillin),[1]; 10^6 Pseudomonas aeruginosa Pa-II i.p.,24.1 mg/head
O=C(O)c1ccccc1Nc1cc(Cl)ccc1C(=O)O [N-2'-carboxyphenyl-4-chloroanthranilic acid],inhibition in vivo at 100 mg/kg,triglyceride in liver,67.1%
same,LD50,Acute Toxicity; female rat,2600 mg/kg
same,LD50,Acute Toxicity; male rat,2100 mg/kg
same,% Remain of Bilirubin,[2],39.7 ± 13.3%
same,% Remain of ICG,[3],5.1 ± 0.2%
same,% Remain of BSP,[4],17.3±8.4%
same,increase in titers in blood,antibody in blood,significant increase
same,Number of plaque forming cell/10^6 cells,"plaque forming cells; 100 mg/kg oral, day 0 based on the sensitization, P<0.01",193.4 ± 26.6 cell/10^6 cells
same,Number of plaque forming cell/10^6 cells,"plaque forming cells; 100 mg/kg oral, day +1 based on the sensitization, P<0.01",316.8 ± 38.2 cell/10^6 cells
same,Number of plaque forming cell/10^6 cells,"plaque forming cells; 100 mg/kg oral, day +2 based on the sensitization",76.5 ± 16.3 cell/10^6 cells
same,Number of plaque forming cell/10^6 cells,"plaque forming cells; 100 mg/kg oral, day +3 based on the sensitization",101.0 ± 11.2 cell/10^6 cells
same,Number of plaque forming cell/10^6 cells,"plaque forming cells; 100 mg/kg oral, day +4 based on the sensitization",95.5 ± 35.3 cell/10^6 cells
same,Number of plaque forming cell/10^6 cells,"plaque forming cells; 100 mg/kg oral, day -1 based on the sensitization, control 49.7 ± 16.0",93.2 ± 28.6 cell/10^6 cells
same,increase in number of plaque forming cells relative to control group,"plaque forming cells; 100 mg/kg oral, maximum vs control",about six times as much as the value of the control group
same,increase in the number of plaque forming cells,plaque forming cells; administered on the date and a day after the sensitization,significant increase
O=C(O)c1ccccc1Nc1ccc(Cl)cc1C(=O)O [N-2'-carboxyphenyl-5-chloroanthranilic acid],inhibition in vivo at 100 mg/kg,triglyceride in liver,30%
Cc1cccc(C(=O)O)c1Nc1cc(Cl)ccc1C(=O)O [N-2'-carboxy-6'-methylphenyl-4-chloroanthranilic acid],inhibition in vivo at 100 mg/kg,triglyceride in liver,25.2%
O=C(O)c1ccc(Cl)cc1Nc1cc(Cl)ccc1C(=O)O [N-2'-carboxy-5'-chlorophenyl-4-chloroanthranilic acid],inhibition in vivo at 100 mg/kg,triglyceride in liver,57.2%
Cc1c(Cl)ccc(C(=O)O)c1Nc1ccccc1C(=O)O [N-2'-carboxyphenyl-4-chloro-3-methylanthranilic acid],inhibition in vivo at 100 mg/kg,triglyceride in liver,40.5%
"C[C@]12CCC(=O)C=C1CC[C@@H]1[C@@H]2C(=O)C[C@@]2(C)[C@H]1CC[C@]2(O)C(=O)CO [Cortisone, cortisone, reference compound]",number of PFC per spleen vs control without cortisone,[5],reduced to one third
Cc1ccc(Nc2cc(Cl)ccc2C(=O)O)c(C(=O)O)c1 [N-2'-carboxy-4'-methylphenyl-4-chloroanthranilic acid],inhibition in vivo at 100 mg/kg,triglyceride in liver,53.2%
"CC(S)C(=O)NCC(=O)O (stereo not shown) [2-mercaptopropionylglycine, reference compound]",inhibition in vivo at 100 mg/kg,triglyceride in liver,9.3%
